Data on 32 molecules can be found in the Kinase Knowledgebase extract (Sharma et al. 2016).

This experiment addresses EGFR (human) (UniProt P00533). The following applies: hn5.

Chain of EGFR (human) (P00533 whole entry, looked up): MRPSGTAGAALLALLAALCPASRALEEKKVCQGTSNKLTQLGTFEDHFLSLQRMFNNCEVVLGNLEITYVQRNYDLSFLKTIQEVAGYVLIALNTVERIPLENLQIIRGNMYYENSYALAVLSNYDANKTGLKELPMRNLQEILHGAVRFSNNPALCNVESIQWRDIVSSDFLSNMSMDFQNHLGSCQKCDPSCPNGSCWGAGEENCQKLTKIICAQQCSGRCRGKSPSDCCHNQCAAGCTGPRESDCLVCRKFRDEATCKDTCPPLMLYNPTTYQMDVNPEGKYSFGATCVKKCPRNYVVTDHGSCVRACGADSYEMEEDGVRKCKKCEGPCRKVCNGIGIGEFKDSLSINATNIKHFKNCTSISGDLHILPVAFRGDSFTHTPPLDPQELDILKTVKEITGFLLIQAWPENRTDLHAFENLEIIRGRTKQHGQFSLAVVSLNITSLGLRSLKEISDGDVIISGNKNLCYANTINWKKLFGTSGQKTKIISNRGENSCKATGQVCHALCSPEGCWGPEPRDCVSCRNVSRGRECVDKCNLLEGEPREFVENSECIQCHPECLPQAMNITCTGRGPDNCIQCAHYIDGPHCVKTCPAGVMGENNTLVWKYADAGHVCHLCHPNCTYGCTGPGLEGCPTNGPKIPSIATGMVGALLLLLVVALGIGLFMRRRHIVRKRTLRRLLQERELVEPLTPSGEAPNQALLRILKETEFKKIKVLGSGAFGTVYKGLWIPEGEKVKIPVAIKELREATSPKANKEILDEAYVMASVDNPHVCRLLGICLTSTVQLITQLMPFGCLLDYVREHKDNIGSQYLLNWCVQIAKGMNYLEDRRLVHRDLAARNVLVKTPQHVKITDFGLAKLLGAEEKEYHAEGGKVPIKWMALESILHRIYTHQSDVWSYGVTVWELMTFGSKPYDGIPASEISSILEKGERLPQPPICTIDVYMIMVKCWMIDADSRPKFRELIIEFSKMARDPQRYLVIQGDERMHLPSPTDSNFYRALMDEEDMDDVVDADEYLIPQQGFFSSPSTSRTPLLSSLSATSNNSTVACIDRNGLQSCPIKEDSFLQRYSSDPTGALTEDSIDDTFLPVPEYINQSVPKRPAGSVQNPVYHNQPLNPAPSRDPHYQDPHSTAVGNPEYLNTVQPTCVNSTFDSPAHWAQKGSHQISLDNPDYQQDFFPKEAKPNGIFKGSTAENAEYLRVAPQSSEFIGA

On to `CS(=O)(=O)CCNCc1nc(-c2ccc3ncnc(Nc4ccc(S(=O)(=O)c5ccccc5)cc4)c3c2)cs1`, for which the IC50 is less than 5 µM.
Turning to `CS(=O)(=O)CCNCc1cccc(-c2cc3c(Nc4ccc(OCc5ccccc5)cc4)ncnc3cn2)c1`, the IC50 is less than 5 µM.
For `COc1cc2ncnc(Nc3ccc(OCc4ccccc4)cc3)c2cc1-c1ccc(CNCCS(C)(=O)=O)o1`, the IC50 is less than 5 µM.
To `CS(=O)(=O)CCNCc1nc(-c2ccc3ncnc(Nc4ccc(OCc5ccccc5)c(F)c4)c3c2)cs1` belongs less than 5 µM.
Turning to `CS(=O)(=O)CCNCc1nc(-c2ccc3ncnc(Nc4ccc(OCc5cccc(Br)c5)cc4)c3c2)cs1`, the IC50 lay within 25 to 50 µM.
To `COc1cc(Nc2ncnc3ccc(-c4csc(CNCCS(C)(=O)=O)n4)cc23)ccc1OCc1cccc(F)c1` belongs 5 to 25 µM.
In turn, `CS(=O)(=O)CCNCc1nc(-c2ccc3ncnc(Nc4ccc(OCc5cccc(F)c5)c(F)c4)c3c2)cs1` gave an IC50 of less than 5 µM.
As to `CS(=O)(=O)CCNCc1ccc(-c2cc3c(Nc4ccc(OCc5ccccc5)cc4)ncnc3cc2F)o1`, the IC50 is less than 5 µM.
Consider `CS(=O)(=O)CCNCc1ccc(-c2ccc3ncnc(Nc4ccc(S(=O)(=O)c5ccccc5)cc4)c3c2)o1`, for which the IC50 is less than 5 µM.
To `CS(=O)(=O)CCNCc1ccc(-c2cc3c(Nc4ccc5c(cnn5Cc5ccccc5)c4)ncnc3cc2F)o1` belongs less than 5 µM; to `CS(=O)(=O)CCNCc1ccc(-c2ccc3ncnc(Nc4ccc(OCc5ccccc5)c(F)c4)c3c2)o1`, less than 5 µM.
The molecule `CS(=O)(=O)CCNCc1ccc(-c2cc3c(Nc4ccc(OCc5cccc(F)c5)cc4)ncnc3cn2)o1` returned an IC50 of less than 5 µM.
To `CS(=O)(=O)CCNCc1nc(-c2ccc3ncnc(Nc4ccc5c(cnn5Cc5cccc(F)c5)c4)c3c2)cs1` belongs less than 5 µM.
The molecule `CS(=O)(=O)CCNCc1nc(-c2ccc3ncnc(Nc4ccc(OCc5cccc(F)c5)cc4)c3c2)cs1` came in with an IC50 of less than 5 µM.
For `CS(=O)(=O)CCNCc1ccc(-c2cc3c(Nc4ccc(S(=O)(=O)c5ccccc5)cc4)ncnc3cc2F)o1`, the IC50 was 5 to 25 µM.
The molecule `CS(=O)(=O)CCNCc1coc(-c2ccc3ncnc(Nc4ccc(OCc5ccccc5)cc4)c3c2)c1` showed an IC50 of less than 5 µM.
For the molecule `CS(=O)(=O)CCNCc1ccc(-c2ccc3ncnc(Nc4ccc(OCc5ccccc5)c(Cl)c4)c3c2)o1`, the IC50 is less than 5 µM.
In turn, `CS(=O)(=O)CCNCc1ccc(-c2ccc3ncnc(Nc4ccc(OCc5cccc(F)c5)cc4)c3c2)o1` gave an IC50 of less than 5 µM.
In the case of `COc1cc(Nc2ncnc3ccc(-c4ccc(CNCCS(C)(=O)=O)o4)cc23)ccc1OCc1cccc(F)c1`, the IC50 is less than 5 µM.
To `CS(=O)(=O)CCNCc1nc(-c2ccc3ncnc(Nc4ccc(OCc5ccccc5)cc4)c3c2)cs1` belongs less than 5 µM; to `COc1cc2ncnc(Nc3ccc(S(=O)(=O)c4ccccc4)cc3)c2cc1-c1ccc(CNCCS(C)(=O)=O)o1`, less than 5 µM; to `COc1cc2ncnc(Nc3ccc4c(cnn4Cc4ccccc4)c3)c2cc1-c1ccc(CNCCS(C)(=O)=O)o1`, less than 5 µM.
Molecule `CS(=O)(=O)CCNCc1ccc(-c2ccc3ncnc(Nc4ccc(OCc5cccc(C(F)(F)F)c5)cc4)c3c2)o1` had an IC50 of 5 to 25 µM.
For `CS(=O)(=O)CCNCc1coc(-c2cc3c(Nc4ccc(OCc5cccc(F)c5)cc4)ncnc3cn2)c1`, the IC50 is less than 5 µM.
The molecule `CS(=O)(=O)CCNCc1nc(-c2ccc3ncnc(Nc4ccc(OCc5cccc(C(F)(F)F)c5)cc4)c3c2)cs1` had an IC50 of less than 5 µM.
In turn, `CS(=O)(=O)CCNCc1ccc(-c2ccc3ncnc(Nc4ccc(OCc5cccc(F)c5)c(F)c4)c3c2)o1` had an IC50 of less than 5 µM.
The molecule `CS(=O)(=O)CCNCc1ccc(-c2ccc3ncnc(Nc4ccc(OCc5cccc(Br)c5)cc4)c3c2)o1` had an IC50 of less than 5 µM.
`CS(=O)(=O)CCNCc1ccoc1-c1ccc2ncnc(Nc3ccc(OCc4ccccc4)cc3)c2c1` came in with an IC50 of 5 to 25 µM.
To `CS(=O)(=O)CCNCc1ccc(-c2cc3c(Nc4ccc(S(=O)(=O)c5ccccc5)cc4)ncnc3cn2)o1` belongs less than 5 µM; to `CS(=O)(=O)CCNCc1nc(-c2ccc3ncnc(Nc4ccc5c(cnn5Cc5ccccc5)c4)c3c2)cs1`, less than 5 µM; to `CS(=O)(=O)CCNCc1ccc(-c2ccc3ncnc(Nc4ccc(OCc5ccccc5)c(C(F)(F)F)c4)c3c2)o1`, less than 5 µM.
In turn, `CS(=O)(=O)CCNCc1ccc(-c2cc3c(Nc4ccc(OCc5ccc(F)cc5)cc4)ncnc3cn2)o1` showed an IC50 of less than 5 µM.
